Assay results as given in the PolyMetriX glass transition set.
± gives the standard deviation of the reports.

Row | SMILES | glass transition temperature [°C]
1 | *Oc1ccc(/C(C)=N/c2ccc(/N=C(\C)c3ccc(Oc4ccc(C(C)(C)c5ccc(*)cc5)cc4)cc3)cc2)cc1 (repeat unit) | 161.00
2 | *OC(COC(=O)c1cc(C(*)=O)cc(C(C)(C)C)c1)COc1ccc(/N=N/c2ccc(C#N)cc2)cc1 (repeat unit) | 137.00
3 | *OC(CCl)COC(=O)C1=C(C(=O)OCC(CCl)OC(=O)c2ccc(C(*)=O)cc2)C2C=CC1C2 (repeat unit) | 72.00
4 | */C=C/C1CC(*)C2C(=O)N(c3cc(C(F)(F)F)cc(C(F)(F)F)c3)C(=O)C12 (repeat unit) | 162.00
5 | *Oc1ccc(Oc2ccc(C(=O)c3ccc(C(=O)c4ccc(*)cc4)cc3)cc2)cc1-c1ccc(S(=O)(=O)O)c(C)c1 (repeat unit) | 167.00
6 | *c1ccc(Oc2ccc(-c3nc4ccc(Oc5ccc6nc(*)c(-c7ccccc7)c(-c7ccccc7)c6c5)cc4c(-c4ccccc4)c3-c3ccccc3)cc2)cc1 (repeat unit) | 305.00
7 | *OC1CCC(OC(=O)CCCCCCCCC(*)=O)CC1 (repeat unit) | 66.00
8 | *Oc1ccc(CC(NC(=O)CCc2ccc(OC(=O)CCCCCCC(*)=O)cc2)C(=O)OCc2ccccc2)cc1 (repeat unit) | 47.00
9 | *Oc1ccc(C(C)(C)c2ccc(Oc3ccc(C(=O)c4ccc(C(=O)c5ccc(*)cc5)cc4)cc3)cc2)cc1 (repeat unit) | 160.00
10 | *CCCCCCCCNC(=O)Cc1ccc(CC(=O)N*)cc1 (repeat unit) | 110.00
11 | *c1ccc(Oc2ccc(C(=O)c3cccc(C(=O)c4ccc(Oc5ccc(-c6cc(*)[nH]n6)cc5)cc4)c3)cc2)cc1 (repeat unit) | 205.00
12 | *Oc1cc2ccccc2cc1OC(=O)c1ccc(Oc2ccc(C(*)=O)cc2)cc1 (repeat unit) | 148.00
13 | *CC(*)(C)C(=O)OCCN(C)c1ccc(/C=C/c2ccc([N+](=O)[O-])cc2)cc1 (repeat unit) | 107.00
14 | *Oc1ccc(-c2ccc(Oc3ccc(Oc4cccc(Oc5ccc(*)cc5)c4C)cc3)c3ccccc23)c2ccccc12 (repeat unit) | 156.00
15 | *CC(=O)NCCCCCCNC(=O)COc1ccc(O*)cc1 (repeat unit) | 67.00
16 | *CC(CC(Cl)(Cl)Cl)O* (repeat unit) | -36.00
17 | *NC(CCC(=O)OC)C(*)=O (repeat unit) | 0.00
18 | *CCCCCCOc1ccc(-c2cc(-c3ccccc3)c(-c3ccc(NC(=O)c4ccc(C(=O)Nc5ccc(-c6c(-c7ccccc7)cc(-c7ccc(O*)cc7)cc6-c6ccccc6)cc5)cc4)cc3)c(-c3ccccc3)c2)cc1 (repeat unit) | 127.00
19 | *c1ccc2c(c1)C(=O)N(c1c(C(C)C)cc(C(c3ccccc3)(c3cc(C(C)C)c(N4C(=O)c5ccc(C(*)(C(F)(F)F)C(F)(F)F)cc5C4=O)c(C(C)C)c3)C(F)(F)F)cc1C(C)C)C2=O (repeat unit) | 274.00
20 | *C(=O)c1ccc2nc(-c3ccccc3)c(-c3ccc(Oc4ccc(-c5nc6cc(*)ccc6nc5-c5ccccc5)cc4)cc3)nc2c1 (repeat unit) | 271.00
21 | *CCCCCC(*)CCC (repeat unit) | -68.00
22 | *CC(*)c1ccccc1C(=O)O (repeat unit) | 177.00
23 | *CCc1ccc(*)cc1 (repeat unit) [Poly(p-xylene)] | 70 ± 10

Row | SMILES | glass transition temperature [°C]
24 | *Nc1ccc(C(c2ccc(NC(=O)c3ccc(C(*)=O)cc3)cc2)(C(F)(F)F)C(F)(F)F)cc1 (repeat unit) | 290.00
25 | *Oc1ccc(C(=O)c2ccc(NC(=O)c3ccc(C(=O)Nc4ccc(C(=O)c5ccc(*)cc5)cc4)cc3)cc2)cc1 (repeat unit) | 187.00
26 | *C(=O)Nc1ccc(Cc2ccc(NC(=O)c3ccc4c(c3)C(=O)N(c3ccc(/N=N/c5ccc(C)cc5)c(N5C(=O)c6ccc(*)cc6C5=O)c3)C4=O)c(C)c2)cc1C (repeat unit) | 257.00
27 | *CC(*)(C)C(=O)OCCCCC (repeat unit) | 10.00
28 | *c1ccc(S(=O)(=O)c2ccc(-n3nc(-c4ccc(Oc5ccc(-c6nn(*)c(=O)c7ccccc67)cc5)cc4)c4ccccc4c3=O)cc2)cc1 (repeat unit) | 295.00
29 | *CCOC(=O)C1CCC(C(=O)OCCOc2ccc(C(C)(C)c3ccc(O*)cc3)cc2)CC1 (repeat unit) | 57.00
30 | *Oc1cc(Cl)c(C(C)(C)c2c(Cl)cc(OC(*)=O)cc2Cl)c(Cl)c1 (repeat unit) | 240.00
31 | *CC(O)COC(=O)CCCCCCCCCCC(=O)OCC(O)COc1ccc(O*)cc1 (repeat unit) | 10.00
32 | *Nc1cc(NC(=O)c2ccc(C(*)=O)cc2)cc(C(=O)OC(c2ccccc2)c2ccccc2)c1 (repeat unit) | 217.00
33 | *c1ccc(Oc2ccc(C(c3ccc(Oc4ccc(N5C(=O)c6ccc7c8c(ccc(c68)C5=O)C(=O)N(*)C7=O)cc4)c(S(=O)(=O)O)c3)(C(F)(F)F)C(F)(F)F)cc2S(=O)(=O)O)cc1 (repeat unit) | 270.00
34 | *CCCCCCCNC(=O)CCCCCCCCCCCCCCCCCCC(=O)N* (repeat unit) | 46.00
35 | *Oc1ccc(NC(=O)c2ccc(Oc3ccc(C(C)(C)c4ccc(C(C)(C)c5ccc(Oc6ccc(C(=O)Nc7ccc(Oc8ccc(C(C)(C)c9ccc(*)cc9)cc8)cc7)cc6)cc5)cc4)cc3)cc2)cc1 (repeat unit) | 163.00
36 | *c1cc(N2C(=O)c3ccc(-c4ccc5c(c4)C(=O)N(*)C5=O)cc3C2=O)c(O)cc1O (repeat unit) | 343.00
37 | *c1ccc(Oc2ccc(-c3ccc(Oc4ccc(N5C(=O)c6cccc(Oc7c(Oc8cccc9c8C(=O)N(*)C9=O)cc(C(C)(C)C)cc7C(C)(C)C)c6C5=O)cc4)cc3)cc2)cc1 (repeat unit) | 237.00
38 | *CCCCCCCCCOC(=O)Nc1ccc(C)c(NC(=O)O*)c1 (repeat unit) | 62.00
39 | *CCCCCOC(=O)NNC(=O)CCCCCCCCC(=O)NNC(=O)O* (repeat unit) | 20.00
40 | *CC(OCCCC)C(C)(C(=O)OC)C(*)(C)C(=O)OC (repeat unit) | 97.50
41 | *CC(*)(C)C(=O)OCCOC (repeat unit) | 24.00
42 | *Oc1ccc(C(C#N)(c2ccccc2)c2ccc(OC(*)=O)cc2)cc1 (repeat unit) | 138.00
43 | *CC(CCCCCCCCCCCCCCCC)C1C(=O)N(CCCCCCCCCCCC)C(=O)C1* (repeat unit) | 30.00
44 | *OC(=O)C(Cc1ccccc1)NC(=O)CCCCCCCCCCC(=O)NC(Cc1ccccc1)C(=O)OC1COC2C(*)COC12 (repeat unit) | 76.00
45 | *c1ccc2c(c1)C(=O)N(c1cc(C(=O)Nc3c(C)cc(-c4cc(C)c(NC(=O)c5ccc(C)c(N6C(=O)c7ccc(C(*)(C(F)(F)F)C(F)(F)F)cc7C6=O)c5)c(C)c4)cc3C)ccc1C)C2=O (repeat unit) | 250.00
46 | *C1=C(c2ccc(-c3ccc4c(c3)C(CCCCCC)(CCCCCC)c3cc(-c5ccc(*)cc5)ccc3-4)cc2)C(=O)N(CCCCCCCCCCCC)C1=O (repeat unit) | 100.00
